Test results published in patent publication US12247227B2, “Methods relating to intestinal organ-on-a-chip” (PRESIDENT AND FELLOWS OF HARVARD COLLEGE, priority 2016, dated 2025).

What was measured:
[1] = test system: enteroid fragments (primary intestinal epithelial cells); assay: Epithelial cell recovery and on-chip seeding of enteroid fragments generated with or without ROCK inhibitor; format: cell-based, human; details: ROCK inhibitor present during fragment isolation and seeding, images 24 h post seeding (FIG. 15)
Method: Representative images showing device seeded with enteroid fragments generated in the absence (−ROCK inhibitor) or presence (+ROCK inhibitor) were acquired 24 h post seeding. Equal cell seeding density and time was used for both of the conditions tested.
Prior to the establishment of primary cell culture in organ-on-chip microfluidic device, the hydrophobic PDMS surface is activated by oxygen plasma treatment and aminized with (3-aminopropyl)[…] silane (APTMS, SIGMA 281778). This surface functionalization allows for an improved cell attachment and facilitates long-term culture of intestinal stem cells and their progeny. Next ECM coating solution composed of 1% Matrigel (BD Corning, 356231) and 200 ug/ml Collagen I (BD Corning 3.36 mg/mL; 354226) is introduced in both the upper and the lower microfluidic channel and device is placed in a humidified 37° C. incubator for the minimum of 2 hours. Then human intestinal microvascular endothelial cells, e.g., purchased from ScienCell (Catalog #2900), are seeded on the bottom side of the porous stretchable PDMS membrane that separates two parallel microchannels of the organ-on-chip device. […]

[2] = test system: small intestine-on-chip (primary human intestinal epithelium with or without HIMEC endothelium)
From the text: As used herein, “differentially permeable”, e.g., in reference to an intestinal barrier, refers to the intestinal barrier displaying a resistance to the passage of certain molecules as compared to monolayers of, e.g., endothelial cells or undifferentiated intestinal epithelial cells. […] Such assays are described in the Examples herein in detail. Briefly, the apical side of the intestinal barrier is contacted with one or more tracer molecules and the concentration of the tracer later found on the basal side of the intestinal barrier.
• PROCEDURE. […]
Intestinal functional assessment and cytokine measurements. […] The concentration of dye that diffused through the membrane into endothelial channel was measured in the effluent, and apparent paracellular permeability (Papp) was calculated using the following formula:
[formula] where Vrec is volume receiver (endothelial compartment), Crec concentration receiver, A the seeded area and Cdon concentration donor (epithelial compartment). Cytokines released in the medium were quantified using U-PLEX Biomarker Assays for human Fractalkine, GM-CSF, IFN-γ, IL-1α, IL-1β, IL-6, IL-8, and IL-10 (Mesoscale Discovery).

Row | Compound | epithelial cell recovery and on-chip seeding [1] | Optimal Papp (apparent permeability) for small intestine-on-chip [2] [×10⁻⁶ cm/s] | Papp [2]
1 | C[C@@H](N)[C@H]1CC[C@H](C(=O)Nc2ccncc2)CC1 [ROCK inhibitor, Y-27632] | Improved epithelial cells recovery and on-chip seeding |  | 
2 | Lucifer Yellow |  | ~1 | 1-2×10^−6
